Where a name gives a salt, the structure may show the parent alone. Read-outs that look alike come from different tables or passages of the source.
Tested on: mice
Assay: Neuropharmacological Assay (SmartCube): automated behavioral signature of compound-treated mice compared with a database of reference drug classes
Format: in vivo
Conditions: for minimal effective dose: Mus musculus, ip; for minimal effective dose / MED / MED (minimal effective dose): i.p., if only one dose was tested, that dose is shown
Outline: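 Probabilities reflect how closely the digitally recorded behavioural signature at 3.0 mg/kg i.p. matched each reference class (antipsychotic, anxiolytic, antidepressant etc.). Dosing occurred 15 min before testing. Minimal effective dose was the dose giving 45% or more total activity.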

[1] = minimal effective dose: dose having 45% or more total activity in SmartCube, read-out: MED
[2] = SmartCube probability class, 3.0 mg/kg dose, i.p. 15 min before the behavioral test
[3] = SmartCube probability class, 3.0 mg/kg dose, i.p. 15 min before the behavioral test, hydrochloride, 3 mg/kg
[4] = dose having 45% or more total activity in SmartCube, read-out: MED (minimal effective dose)
[5] = probability that activity matches this class of agents, 3.0 mg/kg i.p., 15 min before test
[6] = probability that activity matches this class of agents, 3.0 mg/kg i.p., 15 min before test, 3 mg/kg
[7] = dose having 45% or more total activity in SmartCube

SMILES | minimal effective dose [4] [mg/kg] | AD [5] | AG [5] | AN [5] | CE [5] | HL [5] | MS [5] | PS [5] | SH [5] | UK [6] | MED (minimal effective dose) [7] [mpk] | AP [5] | AX [5] | UK [5] | also measured
CNC1COc2c(C3CC3)csc2C1 (single isomer, unassigned) [Compound 324, 3-cyclopropyl-N-methyl-6,7-dihydro-5H-thieno[3,2-b]pyran-6-amine hydrochloride] | – | – | – | – | – | – | – | – | – | – | – | – | – | – | minimal effective dose [1]: 3 mg/kg; AG [2]: ND (^ <4%); AN [2]: ND (^ <4%); AP [2]: ND (^ <4%); AX [2]: ND (^ <4%); CE [2]: ND (^ <4%); HL [2]: ND (^ <4%); MS [2]: ND (^ <4%); PS [2]: ND (^ <4%); SH [2]: ND (^ <4%); AD [3]: + (≥4%); UK [3]: ND (^ <4%)
CNC1COc2c(C3CC3)csc2C1 (single isomer, unassigned) [Compound 325, 3-cyclopropyl-N-methyl-6,7-dihydro-5H-thieno[3,2-b]pyran-6-amine hydrochloride] | – | – | – | – | – | – | – | – | – | – | – | – | – | – | AG [2]: ND (^ <4%); AN [2]: ND (^ <4%); AP [2]: ND (^ <4%); AX [2]: ND (^ <4%); CE [2]: ND (^ <4%); HL [2]: ND (^ <4%); MS [2]: ND (^ <4%); PS [2]: ND (^ <4%); SH [2]: ND (^ <4%); AD [3]: ND (^ <4%); UK [3]: ++ (≥24%); MED (minimal effective dose: dose having 45% or more total activity in SmartCube): 3 mpk
NC1COc2c(C3CC3)csc2C1 (single isomer, unassigned) [Compound 329, 3-cyclopropyl-6,7-dihydro-5H-thieno[3,2-b]pyran-6-amine hydrochloride] | – | – | – | – | – | – | – | – | – | – | – | – | – | – | minimal effective dose [1]: < 3 mg/kg; AG [2]: ND (^ <4%); AN [2]: ND (^ <4%); AP [2]: ND (^ <4%); AX [2]: ND (^ <4%); CE [2]: ND (^ <4%); HL [2]: ND (^ <4%); MS [2]: ND (^ <4%); PS [2]: ND (^ <4%); SH [2]: ND (^ <4%); AD [3]: ++++ (≥74%); UK [3]: ND (^ <4%)
NC1COc2c(C3CC3)csc2C1 (single isomer, unassigned) [Compound 330, 3-cyclopropyl-6,7-dihydro-5H-thieno[3,2-b]pyran-6-amine hydrochloride] | – | – | – | – | – | – | – | – | – | – | – | – | – | – | AG [2]: ND (^ <4%); AN [2]: ND (^ <4%); AP [2]: ND (^ <4%); AX [2]: ND (^ <4%); CE [2]: ND (^ <4%); HL [2]: ND (^ <4%); MS [2]: ND (^ <4%); PS [2]: ND (^ <4%); SH [2]: ND (^ <4%); AD [3]: ND (^ <4%); UK [3]: + (≥4%); MED (minimal effective dose: dose having 45% or more total activity in SmartCube, hydrochloride): >3 mpk
CNC1CCc2sc(F)cc2C1 (single isomer, unassigned; enantiomer 1) [Compound 98, 2-fluoro-N-methyl-4,5,6,7-tetrahydrobenzothiophen-5-amine hydrochloride enantiomer 1] | 3 | ND (^ <4%) | ND (^ <4%) | ND (^ <4%) | ND (^ <4%) | ND (^ <4%) | ND (^ <4%) | ND (^ <4%) | ND (^ <4%) | ++ (≥24%) | – | – | – | – | AP [6]: ++ (≥24%); AX [6]: + (≥4%)
CNC1(C)CCc2cscc2C1 (single isomer, unassigned; enantiomer 1) [Compound 101, N, 5-dimethyl-6,7-dihydro-4H-2-benzothiophen-5-amine hydrochloride enantiomer 1] | – | ++++ (≥74%) | ND (^ <4%) | ND (^ <4%) | ND (^ <4%) | ND (^ <4%) | ND (^ <4%) | – | ND (^ <4%) | – | 3 | ND (^ <4%) | ND (^ <4%) | ND (^ <4%) | PS [6]: ND (^ <4%)
CNC1CCc2c(C)sc(C(F)(F)F)c2C1 (single isomer, unassigned; enantiomer 1) [Compound 104, N, 1-dimethyl-3-(trifluoromethyl)-4,5,6,7-tetrahydro-2-benzothiophen-5-amine hydrochloride enantiomer 1] | 3 | ND (^ <4%) | ND (^ <4%) | ND (^ <4%) | ND (^ <4%) | ND (^ <4%) | ND (^ <4%) | ND (^ <4%) | ND (^ <4%) | ++ (≥24%) | – | – | ND (^ <4%) | – | AP [6]: ++ (≥24%)
CNC1CCc2c(C(F)(F)F)sc(C)c2C1 (single isomer, unassigned; enantiomer 1) [Compound 106, N, 3-dimethyl-1-(trifluoromethyl)-4,5,6,7-tetrahydro-2-benzothiophen-5-amine hydrochloride enantiomer 1] | – | – | ND (^ <4%) | ND (^ <4%) | ND (^ <4%) | ND (^ <4%) | ND (^ <4%) | ND (^ <4%) | ND (^ <4%) | ++ (≥24%) | 3 | ND (^ <4%) | ND (^ <4%) | – | AD [6]: + (≥4%)
CNC1CCc2sc(F)cc2C1 (single isomer, unassigned; enantiomer 2) [Compound 99, 2-fluoro-N-methyl-4,5,6,7-tetrahydrobenzothiophen-5-amine hydrochloride enantiomer 2] | – | ND (^ <4%) | ND (^ <4%) | ND (^ <4%) | ND (^ <4%) | ND (^ <4%) | ND (^ <4%) | ND (^ <4%) | ND (^ <4%) | +++ (≥49%) | 3 | – | – | – | AP [6]: ND (^ <4%); AX [6]: ND (^ <4%)
CNC1(C)CCc2cscc2C1 (single isomer, unassigned; enantiomer 2) [Compound 102, N, 5-dimethyl-6,7-dihydro-4H-2-benzothiophen-5-amine hydrochloride enantiomer 2] | – | ++++ (≥74%) | ND (^ <4%) | ND (^ <4%) | ND (^ <4%) | ND (^ <4%) | ND (^ <4%) | – | ND (^ <4%) | – | 1 | ND (^ <4%) | ND (^ <4%) | ND (^ <4%) | PS [6]: + (≥4%)
CNC1CCc2c(C)sc(C(F)(F)F)c2C1 (single isomer, unassigned; enantiomer 2) [Compound 105, N, 1-dimethyl-3-(trifluoromethyl)-4,5,6,7-tetrahydro-2-benzothiophen-5-amine hydrochloride enantiomer 2] | – | ND (^ <4%) | ND (^ <4%) | ND (^ <4%) | ND (^ <4%) | ND (^ <4%) | ND (^ <4%) | ND (^ <4%) | ND (^ <4%) | ND (^ <4%) | >3 | – | ND (^ <4%) | – | AP [6]: ND (^ <4%)
CNC1CCc2c(C(F)(F)F)sc(C)c2C1 (single isomer, unassigned; enantiomer 2) [Compound 107, N, 3-dimethyl-1-(trifluoromethyl)-4,5,6,7-tetrahydro-2-benzothiophen-5-amine hydrochloride enantiomer 2] | – | – | ND (^ <4%) | ND (^ <4%) | ND (^ <4%) | ND (^ <4%) | ND (^ <4%) | ND (^ <4%) | ND (^ <4%) | ND (^ <4%) | 10 | ND (^ <4%) | ND (^ <4%) | – | AD [6]: ND (^ <4%)
CNC1Cc2cscc2C1.Cl [Compound 21, N-methyl-5,6-dihydro-4H-cyclopenta[c]thiophen-5-amine hydrochloride] | 3 | ND (^ <4%) | ND (^ <4%) | ND (^ <4%) | ND (^ <4%) | ND (^ <4%) | ND (^ <4%) | ND (^ <4%) | ND (^ <4%) | – | – | ND (^ <4%) | ND (^ <4%) | +++ (≥49%) | –
CNC1CC=Cc2ccsc2C1.Cl (stereo not drawn) [Compound 24, N-methyl-7,8-dihydro-6H-cyclohepta[b]thiophen-7-amine hydrochloride] | 3 | ND (^ <4%) | ND (^ <4%) | ND (^ <4%) | ND (^ <4%) | ND (^ <4%) | ND (^ <4%) | ND (^ <4%) | +++ (≥49%) | – | – | ND (^ <4%) | ND (^ <4%) | ND (^ <4%) | –
CNC1CCc2sc(F)cc2C1 (stereo not drawn) [Compound 82, 2-fluoro-N-methyl-4,5,6,7-tetrahydrobenzothiophen-5-amine hydrochloride] | 3 | ++ (≥24%) | ND (^ <4%) | ND (^ <4%) | ND (^ <4%) | ND (^ <4%) | ND (^ <4%) | ND (^ <4%) | ND (^ <4%) | – | – | + (≥4%) | ND (^ <4%) | ++ (≥24%) | –
